Measured values taken from PubChem BioAssay AID1195 (EPA DSSTox, 2008).

Tested on: human maximum recommended daily dose, FDA database
Test: DSSTox (FDAMDD) FDA Maximum (Recommended) Daily Dose Database
Conditions: active compounds read low
Summary of the method: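 MRDD values come from clinical trials with daily oral dosing, usually for 3–12 months, for the average adult, in mg/day converted to mg/kg-bw/day assuming 60 kg. Antineoplastic mg/m2 doses are divided by 37. Activity score maps log10(1/MRDD mmol) onto 1–100.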

[1] = TherapeuticCategory: anticholinergic
[2] = TherapeuticCategory: antineoplastic
[3] = TherapeuticCategory: antibacterial
[4] = TherapeuticCategory: anxiolytic, skeletal muscle relaxant
[5] = TherapeuticCategory: antihypertensive
[6] = TherapeuticCategory: anti inflammatory
[7] = TherapeuticCategory: glucocorticoid

## CCC(C)C(C(=O)OC1CCN(C)CC1)c1ccccc1 (stereo not drawn)
[1]
  maximum recommended daily dose (mmol/kg-bw/day): 0.00173

## CN1CCC(=C2c3ccccc3CC(=O)c3sccc32)CC1
TherapeuticCategory: antiasthmatic
  maximum recommended daily dose (mmol/kg-bw/day): 0.000108

## Nc1c(N=Nc2ccc(-c3ccc(N=Nc4cc(S(=O)(=O)O)c5ccccc5c4N)cc3)cc2)cc(S(=O)(=O)O)c2ccccc12
TherapeuticCategory: diagnostic aid
  maximum recommended daily dose (mmol/kg-bw/day): 0.00538

## O=NN(CCCl)C(=O)NCCCl
[2]
  maximum recommended daily dose (mmol/kg-bw/day): 0.000389

## CN(C)CCn1nnnc1SCC1=C(C(=O)O)N2C(=O)[C@@H](NC(=O)Cc3csc(N)n3)[C@H]2SC1
[3]
  maximum recommended daily dose (mmol/kg-bw/day): 0.19

## CCOC(=O)CCC(=O)O[C@H]1[C@H](O[C@@H]2[C@@H](C)[C@H](O[C@H]3C[C@@](C)(OC)[C@@H](O)[C@H](C)O3)[C@@H](C)C(=O)O[C@H](CC)[C@@](C)(O)[C@H](O)[C@@H](C)C(=O)[C@H](C)C[C@@]2(C)O)O[C@H](C)C[C@@H]1N(C)C
[3]
  maximum recommended daily dose (mmol/kg-bw/day): 0.0774

## O=C(O)CN(CCN(CC(=O)O)CC(=O)O)CC(=O)O
TherapeuticCategory: pharmaceutic aid
  maximum recommended daily dose (mmol/kg-bw/day): 0.24

## NC12CC3CC(CC(C3)C1)C2
TherapeuticCategory: antiviral, antiparkinsonian
  maximum recommended daily dose (mmol/kg-bw/day): 0.0441

## O=C(O)c1ccccc1C(=O)Nc1ccc(S(=O)(=O)Nc2nccs2)cc1
[3]
  maximum recommended daily dose (mmol/kg-bw/day): 0.496

## CC(C)Nc1cccnc1N1CCN(C(=O)c2cc3cc(NS(C)(=O)=O)ccc3[nH]2)CC1
TherapeuticCategory: antiviral
  maximum recommended daily dose (mmol/kg-bw/day): 0.0146

## CCC(=O)C(CC(C)N(C)C)(c1ccccc1)c1ccccc1 (stereo not drawn)
TherapeuticCategory: narcotic analgesic
  maximum recommended daily dose (mmol/kg-bw/day): 0.00162

## CNCC12CCC(c3ccccc31)c1ccccc12
[4]
  maximum recommended daily dose (mmol/kg-bw/day): 0.00401

## Cc1ncc(CO)c(CO)c1O
TherapeuticCategory: enzyme cofactor vitamin
  maximum recommended daily dose (mmol/kg-bw/day): 0.0394

## COc1ccccc1OCC1CNC(=O)O1 (stereo not drawn)
[4]
  maximum recommended daily dose (mmol/kg-bw/day): 0.0896

## CO[C@@]12[C@H](COC(N)=O)C3=C(C(=O)C(C)=C(N)C3=O)N1C[C@@H]1N[C@@H]12
[2]
  maximum recommended daily dose (mmol/kg-bw/day): 0.00162

## COc1ccc(/C=C/C(=O)Nc2ccccc2C(=O)O)cc1OC
TherapeuticCategory: antiallergic
  maximum recommended daily dose (mmol/kg-bw/day): 0.0153

## CC1=C(C(=O)O)N2C(=O)[C@@H](NC(=O)[C@H](N)c3ccccc3)[C@H]2SC1
[3]
  maximum recommended daily dose (mmol/kg-bw/day): 0.192

## CCOC(=O)C1=C(C)NC(C)=C(C(=O)OC)C1c1cccc([N+](=O)[O-])c1 (stereo not drawn)
[5]
  maximum recommended daily dose (mmol/kg-bw/day): 0.000924

## CC1=C(CC(=O)O)c2cc(F)ccc2/C1=C/c1ccc(S(C)=O)cc1 (stereo not drawn)
[6]
  maximum recommended daily dose (mmol/kg-bw/day): 0.0187

## CC(C1=C(CCN(C)C)Cc2ccccc21)c1ccccn1 (stereo not drawn)
TherapeuticCategory: antihistaminic
  maximum recommended daily dose (mmol/kg-bw/day): 0.000342

## NS(=O)(=O)c1cc2c(cc1Cl)NC(CC1CCCC1)NS2(=O)=O (stereo not drawn)
[5]
  maximum recommended daily dose (mmol/kg-bw/day): 6.58e-05

## Cc1ncc([N+](=O)[O-])n1CCO
TherapeuticCategory: antiprotozoal
  maximum recommended daily dose (mmol/kg-bw/day): 0.195

## CCC[N+]12[C@@H]3C[C@]45c6ccccc6N(C)[C@H]4[C@H]1C[C@H](C3[C@@H]5O)[C@H](CC)[C@H]2O (stereo partly drawn)
TherapeuticCategory: antiarryhthmic
  maximum recommended daily dose (mmol/kg-bw/day): 0.0036

## CC[C@]1(O)CC[C@H]2[C@@H]3CCC4=CC(=O)CC[C@@H]4[C@H]3CC[C@@]21C
TherapeuticCategory: androgen
  maximum recommended daily dose (mmol/kg-bw/day): 0.00165

## COc1cc2nc(N3CCN(C(=O)C4CCCO4)CC3)nc(N)c2cc1OC (stereo not drawn)
[5]
  maximum recommended daily dose (mmol/kg-bw/day): 0.00086

## C[C@]12C=CC(=O)C=C1CC[C@@H]1[C@@H]2[C@@H](O)C[C@@]2(C)[C@H]1CC[C@]2(O)C(=O)COC(=O)CCC(=O)O
[7]
  maximum recommended daily dose (mmol/kg-bw/day): 0.0069

## CCCCC(=O)O[C@]1(C(=O)CO)[C@@H](C)C[C@H]2[C@@H]3CCC4=CC(=O)C=C[C@]4(C)[C@@]3(F)[C@@H](O)C[C@@]21C
[7]
  maximum recommended daily dose (mmol/kg-bw/day): 0.000315

## CC(C)Cc1ccc(C(C)C(=O)OCc2ccccn2)cc1 (stereo not drawn)
[6]
  maximum recommended daily dose (mmol/kg-bw/day): 0.135

## C#CCN(C)[C@H](C)Cc1ccccc1
TherapeuticCategory: antiparkinsonian
  maximum recommended daily dose (mmol/kg-bw/day): 0.000892

## CC[N+]1(CC)CCC(=C(c2ccccc2)c2ccccc2)C1C (stereo not drawn)
TherapeuticCategory: antispasmodic
  maximum recommended daily dose (mmol/kg-bw/day): 0.00518

## C[C@]12C=CC(=O)C=C1C(Cl)=C[C@@H]1[C@@H]2[C@@H](O)C[C@@]2(C)[C@H]1CC[C@]2(O)C(=O)CO
[7]
  maximum recommended daily dose (mmol/kg-bw/day): 0.000529

## CCC(C)C(CC)C(=O)NC(N)=O (stereo not drawn)
TherapeuticCategory: hypnotic
  maximum recommended daily dose (mmol/kg-bw/day): 0.0358

## CCCCN1CCCCC1C(=O)Nc1c(C)cccc1C (stereo not drawn)
TherapeuticCategory: local anesthetic
  maximum recommended daily dose (mmol/kg-bw/day): 0.013

## CO/N=C(\C(=O)N[C@@H]1C(=O)N2C(C(=O)O)=C(CSc3nnnn3C)CS[C@H]12)c1csc(N)n1
[3]
  maximum recommended daily dose (mmol/kg-bw/day): 0.13

## CC[C@@H](C(N)=O)N1CCCC1=O
TherapeuticCategory: anticonvulsant
  maximum recommended daily dose (mmol/kg-bw/day): 0.353

## CCCN(CCC)C(=O)C(CCC(=O)O)NC(=O)c1ccccc1 (stereo not drawn)
[1]
  maximum recommended daily dose (mmol/kg-bw/day): 0.0798

## C[C@]12C=CC(=O)C=C1CC[C@@H]1[C@@H]2[C@@H](O)C[C@@]2(C)[C@H]1CC[C@]2(O)C(=O)COC(=O)CCCc1ccc(N(CCCl)CCCl)cc1
[2]
  maximum recommended daily dose (mmol/kg-bw/day): 0.00515

## COc1ccc(C(CN(C)C)C2(O)CCCCC2)cc1 (stereo not drawn)
TherapeuticCategory: antidepressant
  maximum recommended daily dose (mmol/kg-bw/day): 0.0225
